Assay results from ChEMBL document CHEMBL1909046, “DrugMatrix in vitro pharmacology data”.
Where a SMILES comes first, the peptide text is derived from it. Bridges are numbered along the chain shown (N, C = ends). [ ]: non-standard residue; d: D form. The star is where a group is joined. Ileψ(thiazoline)Cys = CC[C@H](C)[C@H](N)C1=N[C@H](C(=O)*)CS1; dOrn = NCCC[C@@H](N)C(=O)O

Tests used:
[1] = biological target: T1, Adenosine receptor A3 (Homo sapiens, UniProt P0DMS8); assay type: cell membranes, CHO-K1, Membrane; details: cho-k1;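 further: radioligand binding assay with AB-MECA serving as the labeled ligand; in other assays of this panel Not Active means under 50% inhibition at 10 µM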
T1 sequence (P0DMS8 whole entry): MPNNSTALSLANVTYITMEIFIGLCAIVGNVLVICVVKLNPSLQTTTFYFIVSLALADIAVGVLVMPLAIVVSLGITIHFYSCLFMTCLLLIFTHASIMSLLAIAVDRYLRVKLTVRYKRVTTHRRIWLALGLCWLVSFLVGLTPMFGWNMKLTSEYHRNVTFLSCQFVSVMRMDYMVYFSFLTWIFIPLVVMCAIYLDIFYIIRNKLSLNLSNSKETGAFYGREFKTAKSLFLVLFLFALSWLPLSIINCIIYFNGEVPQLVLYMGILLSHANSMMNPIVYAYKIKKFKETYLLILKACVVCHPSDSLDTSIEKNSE

[2] = biological target: Sigma non-opioid intracellular receptor 1 (Homo sapiens, UniProt Q99720); experiment: DRUGMATRIX: Sigma1 radioligand binding (ligand: [3H] Haloperidol); assay type: cell membranes, Jurkat, Membrane; details: jurkat; Not Active = under 50% inhibition at 10 µM
[3] = DRUGMATRIX: ATPase, Na+/K+ enzyme inhibition (substrate: ATP); assay type: tissue-based, Sus scrofa, Heart; details: Not Active = under 50% inhibition at 10 µM
[4] = biological target: Cytochrome P450 2D6 (Homo sapiens, UniProt P10635); details: bti-tn-5b1-4; further: in other assays of this panel Not Active means under 50% inhibition at 10 µM
[5] = biological target: T2, Alpha-1B adrenergic receptor (Rattus norvegicus, UniProt P15823); experiment: DRUGMATRIX: Alpha-1B adrenergic receptor radioligand binding (ligand: prazosin); assay type: cell membranes, Wistar, Liver, Membrane; details: Not Active = under 50% inhibition at 10 µM
T2 sequence (P15823 whole entry): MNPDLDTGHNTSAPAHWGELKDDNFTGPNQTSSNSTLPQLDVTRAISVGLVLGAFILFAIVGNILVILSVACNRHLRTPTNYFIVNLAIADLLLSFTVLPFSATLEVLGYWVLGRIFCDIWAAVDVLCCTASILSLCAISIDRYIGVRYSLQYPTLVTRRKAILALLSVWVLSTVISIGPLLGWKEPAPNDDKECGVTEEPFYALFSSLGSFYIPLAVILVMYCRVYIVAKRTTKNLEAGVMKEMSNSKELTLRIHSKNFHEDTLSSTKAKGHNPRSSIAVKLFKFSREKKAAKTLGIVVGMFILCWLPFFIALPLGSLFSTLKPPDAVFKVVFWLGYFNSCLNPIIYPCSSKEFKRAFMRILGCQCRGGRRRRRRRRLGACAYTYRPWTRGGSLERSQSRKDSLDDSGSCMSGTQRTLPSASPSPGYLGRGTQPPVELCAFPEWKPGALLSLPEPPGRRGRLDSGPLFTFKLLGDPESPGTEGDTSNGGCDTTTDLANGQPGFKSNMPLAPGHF

[6] = DRUGMATRIX: Phorbol Ester radioligand binding (ligand: [3H] PDBu); assay type: cell membranes, Mus musculus, ICR, Brain, Membrane; details: Not Active = under 50% inhibition at 10 µM
[7] = biological target: Matrix metalloproteinase-9 (Homo sapiens, UniProt P14780); assay type: cell-based;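 further: inhibition of isolated MMP-9 enzyme activity toward a synthetic peptide substrate, from the DrugMatrix protease screening panel; in other assays of this panel Not Active means under 50% inhibition at 10 µM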
[8] = DRUGMATRIX: Calcium Channel Type L, Phenylalkylamine radioligand binding (ligand: [3H] (-)-Desmethoxyverapamil (D-888)); assay type: cell membranes, Rattus norvegicus, Wistar, Brain, Membrane; details: Not Active = under 50% inhibition at 10 µM
[9] = DRUGMATRIX: GABAA, Muscimol, Central radioligand binding (ligand: [3H] Muscimol); assay type: cell membranes, Rattus norvegicus, Wistar, Brain, Membrane; details: Not Active = under 50% inhibition at 10 µM
[10] = biological target: T3, 5-hydroxytryptamine receptor 2C (Homo sapiens, UniProt P28335); experiment: DRUGMATRIX: Serotonin (5-Hydroxytryptamine) 5-HT2C radioligand binding (ligand: [3H] Mesulergine); assay type: cell membranes, CHO-K1, Membrane; details: cho-k1; Not Active = under 50% inhibition at 10 µM
T3 sequence (P28335 whole entry): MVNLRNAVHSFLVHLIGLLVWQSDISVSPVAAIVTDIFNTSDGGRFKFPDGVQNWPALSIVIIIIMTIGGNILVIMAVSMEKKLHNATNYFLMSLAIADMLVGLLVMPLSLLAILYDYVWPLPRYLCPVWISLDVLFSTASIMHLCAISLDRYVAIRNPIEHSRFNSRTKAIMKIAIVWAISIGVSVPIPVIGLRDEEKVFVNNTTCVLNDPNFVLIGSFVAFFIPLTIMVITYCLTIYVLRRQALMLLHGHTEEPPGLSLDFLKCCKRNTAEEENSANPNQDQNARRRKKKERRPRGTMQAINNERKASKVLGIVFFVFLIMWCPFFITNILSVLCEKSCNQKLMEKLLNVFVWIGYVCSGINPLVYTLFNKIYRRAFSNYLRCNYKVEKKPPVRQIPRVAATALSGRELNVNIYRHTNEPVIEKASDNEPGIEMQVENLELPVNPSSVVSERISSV

[11] = DRUGMATRIX: Calcium Channel Type L, Dihydropyridine radioligand binding (ligand: [3H] Nitrendipine); assay type: cell membranes, Rattus norvegicus, Wistar, Cerebral cortex, Membrane; details: Not Active = under 50% inhibition at 10 µM
[12] = biological target: T4, Calcitonin receptor (Homo sapiens, UniProt P30988); assay type: cell membranes, Membrane; details: t47d; further: in other assays of this panel Not Active means under 50% inhibition at 10 µM
T4 sequence (P30988 whole entry): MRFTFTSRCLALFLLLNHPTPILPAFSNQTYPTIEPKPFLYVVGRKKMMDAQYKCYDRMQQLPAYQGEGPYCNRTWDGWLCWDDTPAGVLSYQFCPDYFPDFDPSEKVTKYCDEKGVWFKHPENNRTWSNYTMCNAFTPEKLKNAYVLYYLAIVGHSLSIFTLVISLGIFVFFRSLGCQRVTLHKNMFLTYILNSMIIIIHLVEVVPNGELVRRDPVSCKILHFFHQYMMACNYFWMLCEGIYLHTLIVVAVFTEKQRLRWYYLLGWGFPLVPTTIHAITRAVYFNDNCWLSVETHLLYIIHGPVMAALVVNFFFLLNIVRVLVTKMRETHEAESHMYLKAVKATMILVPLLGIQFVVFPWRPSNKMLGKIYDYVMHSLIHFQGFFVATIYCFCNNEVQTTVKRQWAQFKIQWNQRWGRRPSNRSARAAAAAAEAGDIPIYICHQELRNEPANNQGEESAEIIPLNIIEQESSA

[13] = DRUGMATRIX: Tumor Necrosis Factor (TNF), Non-Selective radioligand binding (ligand: [125I] TNF-alpha); assay type: cell membranes, Membrane; details: u-937; Not Active = under 50% inhibition at 10 µM

Cytochrome P450 2D6, sequence (P10635 whole entry): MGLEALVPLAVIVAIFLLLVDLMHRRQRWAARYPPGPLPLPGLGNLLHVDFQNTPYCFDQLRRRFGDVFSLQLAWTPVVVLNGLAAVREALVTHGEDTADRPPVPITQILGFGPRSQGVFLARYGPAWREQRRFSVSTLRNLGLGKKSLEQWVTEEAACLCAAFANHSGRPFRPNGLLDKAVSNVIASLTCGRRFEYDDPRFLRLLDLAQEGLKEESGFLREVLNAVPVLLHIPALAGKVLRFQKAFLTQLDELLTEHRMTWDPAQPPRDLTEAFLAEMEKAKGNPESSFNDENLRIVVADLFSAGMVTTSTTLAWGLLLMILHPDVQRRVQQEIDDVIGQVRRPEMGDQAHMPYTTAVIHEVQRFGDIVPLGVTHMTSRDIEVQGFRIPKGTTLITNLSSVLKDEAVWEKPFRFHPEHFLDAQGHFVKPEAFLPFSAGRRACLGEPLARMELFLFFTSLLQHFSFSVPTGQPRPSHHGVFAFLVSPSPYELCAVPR
Matrix metalloproteinase-9, sequence (P14780 whole entry): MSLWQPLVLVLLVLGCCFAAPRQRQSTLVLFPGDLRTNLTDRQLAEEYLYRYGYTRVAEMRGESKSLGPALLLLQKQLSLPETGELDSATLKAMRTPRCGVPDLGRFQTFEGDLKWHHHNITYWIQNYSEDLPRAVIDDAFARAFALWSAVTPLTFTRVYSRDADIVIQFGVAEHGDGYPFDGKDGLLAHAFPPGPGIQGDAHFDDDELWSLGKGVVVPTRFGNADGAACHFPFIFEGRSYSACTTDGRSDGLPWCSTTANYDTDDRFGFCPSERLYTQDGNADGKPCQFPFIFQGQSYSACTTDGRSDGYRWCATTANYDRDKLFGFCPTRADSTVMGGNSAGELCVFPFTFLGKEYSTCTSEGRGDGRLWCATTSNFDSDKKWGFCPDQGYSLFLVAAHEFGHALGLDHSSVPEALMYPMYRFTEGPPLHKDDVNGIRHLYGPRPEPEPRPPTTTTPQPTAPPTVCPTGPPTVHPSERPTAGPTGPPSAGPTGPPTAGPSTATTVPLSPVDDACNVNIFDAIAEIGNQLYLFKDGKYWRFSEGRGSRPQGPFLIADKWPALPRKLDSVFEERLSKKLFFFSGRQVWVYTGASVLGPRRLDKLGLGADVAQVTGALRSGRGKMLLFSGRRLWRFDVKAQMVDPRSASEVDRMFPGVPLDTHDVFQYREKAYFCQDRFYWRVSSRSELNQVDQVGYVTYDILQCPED
Sigma non-opioid intracellular receptor 1, sequence (Q99720 whole entry): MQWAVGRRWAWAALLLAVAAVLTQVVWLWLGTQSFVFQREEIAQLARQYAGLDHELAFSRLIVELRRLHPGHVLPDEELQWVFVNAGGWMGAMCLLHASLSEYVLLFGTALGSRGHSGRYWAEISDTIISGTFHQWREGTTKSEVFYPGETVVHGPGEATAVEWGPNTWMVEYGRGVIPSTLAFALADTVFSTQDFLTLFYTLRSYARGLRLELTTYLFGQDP

CC[C@H](C)[C@H](N)C1=N[C@H](C(=O)N[C@@H](CC(C)C)C(=O)N[C@H](CCC(=O)O)C(=O)N[C@H](C(=O)N[C@H]2CCCCNC(=O)[C@H](CC(N)=O)NC(=O)[C@@H](CC(=O)O)NC(=O)[C@H](Cc3cnc[nH]3)NC(=O)[C@@H](Cc3ccccc3)NC(=O)[C@H]([C@@H](C)CC)NC(=O)[C@@H](CCCN)NC2=O)[C@@H](C)CC)CS1 [BACITRACIN] ({Ileψ(thiazoline)Cys}-L[dE]IK[dOrn]I[dF]H[dD]N; lactam 4-C)
Not Active: IC50 [1] | IC50 [2] | IC50 [3] | Ki [3] | IC50 [4] | Ki [4] | IC50 [5] | IC50 [6] | Ki [6] | IC50 [7] | IC50 [8] | Ki [8] | IC50 [9] | Ki [9] | IC50 [10] | IC50 [11] | Ki [11] | IC50 [12] | IC50 [13] | Ki [13]

O=C1CCc2cc(OCCCCc3nnnn3C3CCCCC3)ccc2N1 [CILOSTAZOL]
Not Active: IC50 [1] | IC50 [2] | IC50 [3] | Ki [3] | IC50 [4] | Ki [4] | IC50 [5] | IC50 [6] | Ki [6] | IC50 [7] | IC50 [8] | Ki [8] | IC50 [9] | Ki [9] | IC50 [10] | IC50 [11] | Ki [11] | IC50 [12] | IC50 [13] | Ki [13]

CC(C)n1c(/C=C/C(O)CC(O)CC(=O)O)c(-c2ccc(F)cc2)c2ccccc21 (stereo not drawn) [FLUVASTATIN]
Not Active: IC50 [1] | IC50 [2] | IC50 [3] | Ki [3] | IC50 [4] | Ki [4] | IC50 [5] | IC50 [6] | Ki [6] | IC50 [7] | IC50 [8] | Ki [8] | IC50 [9] | Ki [9] | IC50 [10] | IC50 [11] | Ki [11] | IC50 [12] | IC50 [13] | Ki [13]

O=P1(NCCCl)OCCCN1CCCl (stereo not drawn) [IFOSFAMIDE]
Not Active: IC50 [1] | IC50 [2] | IC50 [3] | Ki [3] | IC50 [5] | IC50 [6] | Ki [6] | IC50 [7] | IC50 [8] | Ki [8] | IC50 [9] | Ki [9] | IC50 [10] | IC50 [11] | Ki [11] | IC50 [12] | IC50 [13] | Ki [13]

CN1CCC[C@H]1c1cccnc1 [NICOTINE]
Not Active: IC50 [1] | IC50 [2] | IC50 [3] | Ki [3] | IC50 [4] | Ki [4] | IC50 [5] | IC50 [6] | Ki [6] | IC50 [7] | IC50 [8] | Ki [8] | IC50 [9] | Ki [9] | IC50 [10] | IC50 [11] | Ki [11] | IC50 [12] | IC50 [13] | Ki [13]
